According to the NIST ThermoML archive (doi:10.1016/j.fluid.2010.12.012):

Experiment: wn = mass fraction of the nth substance listed
Details: 294.9 K, Liquid; for viscosity: Cone and plate viscometry; for mass density: Vibrating tube method

CC [ethane] + CO
Details | mass density [kg/m3] | viscosity [mPa·s]
1196 kPa, w1 = 0.056 | 750 | 0.54
2123 kPa, w1 = 0.12 | 720 | 0.43
3130 kPa, w1 = 0.225 | 671 | 0.32
